Data as given in PMC9228955, “Synthesis, Physicochemical, Labeling and In Vivo Characterization of ^44Sc-Labeled DO3AM-NI as a Hypoxia-Sensitive PET Probe” (Pharmaceuticals, 2022).

Key:
[1] = In vivo PET/MRI imaging of healthy control SCID mice, quantitative SUV analysis; design: species or system CB17 SCID mice; details: 90 and 240 min after tracer injection
Experimental: The biodistribution of ^44Sc- and ^68Ga-labeled DO3AM-NI was investigated using healthy control and KB tumor-bearing SCID mice. PET/MRI imaging and ex vivo studies were performed 90 and 240 min after intravenous injection of ^44Sc- or ^68Ga-labeled DO3AM-NI. By the qualitative analysis of the PET/MRI images, the kidneys and the bladder with urine were clearly visualized using both radiotracers at each investigated time point; however, in other abdominal and thoracic organs, low uptake was observed.
For in vivo imaging studies, healthy control and KB tumor-bearing CB17 SCID mice were injected with 8.42 ± 0.38 MBq of ^68Ga- or ^44Sc-labeled DO3AM-NI via the lateral tail vein 13 ± 1 days after the inoculation of KB tumor cells. Then, 65 and 225 min after radiotracer injection, mice were anaesthetized by 3% isoflurane (Forane) with a dedicated small animal anesthesia device and whole-body T1-weighted MRI scans were performed (3D GRE EXT multi-FOV; TR/TE 15/2 ms; phase: 100; FOV 60 mm; NEX 2) using the preclinical nanoScan PET/MRI system with 1 Tesla magnetic field (Mediso Ltd., Hungary). […]
Quantitative radiotracer uptake was expressed in terms of standardized uptake value (SUV), SUV = [VOI activity (Bq/mL)]/[injected activity (Bq)/animal weight (g)], assuming a density of 1 g/mL. […]

[2] = Stability of labeled complexes in mouse plasma, Na2H2EDTA and oxalic acid by radio-HPLC; type: in vitro ADME
Experimental: (§1) Subsequently, the octanol/water partition coefficient (logP) of the labeled complexes was determined to be −3.89 for [^68Ga]Ga(DO3AM-NI) and −2.59 for [^44Sc]Sc(DO3AM-NI). […] To assess the labeled compounds’ stability, the chelates were mixed with the solution of mouse plasma, Na2H2EDTA and oxalic acid, respectively. Aliquots were then taken at different time points (0, 60, 120 and 240 min) and injected into the radio-HPLC column, and the chromatograms were analyzed. After 240 min, the RCP of the samples was above 93% in all three cases.
A 10 µL volume of [^68Ga]Ga(DO3AM-NI) and [^44Sc]Sc(DO3AM-NI) solution was added to the solution of 90 µL of mouse plasma, Na2H2EDTA (0.01 M) and oxalic acid (0.01 M), respectively. Samples were analyzed by radio-HPLC at the beginning and after 60, 120 and 240 min. The analytical conditions were the same as detailed for the quality control of the labeled compound.

[3] = tested on: KB tumors; test: Ex vivo biodistribution in KB tumor xenografts; design: species or system CB17 SCID mice; details: for KB tumor uptake: 13 ± 1 days after subcutaneous tumor induction, n = 5, mean ± SD
Experimental: For the assessment of the accumulation in the tumors of [^44Sc]Sc(DO3AM-NI) and [^68Ga]Ga(DO3AM-NI), ex vivo biodistribution studies were performed 90 and 240 min post injection using KB tumor xenografts.
(§2) For tumor induction, SCID mice were injected with 5x10^6 KB tumor cells in 0.9% NaCl (100 µL) subcutaneously into the left shoulder area. The tumor growth was assessed by caliper measurements, and tumor size was calculated using the following formula: (largest diameter × smallest diameter^2)/2. In vivo experiments were carried out approximately 13 ± 1 days after […] injection of tumor cells at the tumor volume of approximately 110 mm^3.
(§3) For the determination of ex vivo biodistribution of the radiotracers, control and KB tumor-bearing mice were injected intravenously with 8.42 ± 0.38 MBq of ^68Ga- or ^44Sc-labeled DO3AM-NI via the tail vein. Mice were euthanized with 5% isoflurane 90 min or 4 h after intravenous radiotracer injection. Three tissue samples were taken from the selected organs, and their weight and radioactivity were measured with a calibrated gamma counter (Perkin-Elmer Packard Cobra, Waltham, MA, USA). The radiotracer uptake was expressed as %ID/g tissue.

[4] = Ex vivo biodistribution in healthy control SCID mice; design: species or system CB17 SCID mice; details: mean ± SD
Experimental: Ex vivo biodistribution studies were carried out 90 min and 240 min after intravenous injection of ^44Sc- or ^68Ga-labeled DO3AM-NI, and the accumulated activities of the organs and tissues were determined using a gamma counter. By the quantitative analysis of the ex vivo data, significant differences were found between the %ID/g values when ^44Sc- and ^68Ga-labeled DO3AM-NI accumulations were compared. […] In contrast, e.g., [^18F]fluorine- [28], [^131I]iodine- [29], [^99mTc]technetium- [30] and [^64Cu]copper-labeled nitroimidazole-based probes, due to their chemical properties, were mainly metabolized via the liver, and the large abdominal accumulation impaired the evaluation of abdominal tumors in the PET images. The ^44Sc- and ^68Ga-labeled nitroimidazole derivatives had more favorable properties in terms of the reporting and evaluation of PET images and due to their rapid elimination through the urinary system.
as §3

[5] = tested on: KB tumors; test: In vivo PET/MRI imaging of KB tumor-bearing mice, quantitative SUV analysis; design: species or system CB17 SCID mice; details: 240 min after injection
Experimental: The tumor-specific accumulation of [^44Sc]Sc(DO3AM-NI) and [^68Ga]Ga(DO3AM-NI) was investigated by PET/MRI imaging 90 and 240 min after radiotracer injection using KB tumor-bearing mice. The subcutaneously growing KB tumors were clearly visualized using [^44Sc]Sc(DO3AM-NI) 90 and 240 min post injection with relatively higher SUVmean and SUVmax values (SUVmean: 1.46 ± 0.32 and SUVmax: 2.35 ± 0.47 at 90 min and SUVmean: 0.67 ± 0.03 and SUVmax: 1.55 ± 0.28 at 240 min). Lower accumulation was found in the same KB tumors by using the ^68Ga-labeled molecule (SUVmean: 0.79 ± 0.10, SUVmax: 1.94 ± 0.40 at 90 min and SUVmean: 0.51 ± 0.09 and SUVmax: 1.23 ± 0.10 at 240 min); however, this difference between the radiotracers was not significant (Figure 4E). […] In contrast, no significant differences were found between the T/M SUV values of the two radiotracers 90 min post injection (Figure 4F).
as §2
For in vivo imaging studies, healthy control and KB tumor-bearing CB17 SCID mice were injected with 8.42 ± 0.38 MBq of ^68Ga- or ^44Sc-labeled DO3AM-NI via the lateral tail vein 13 ± 1 days after the inoculation of KB tumor cells. Then, 65 and 225 min after radiotracer injection, mice were anaesthetized by 3% isoflurane (Forane) with a dedicated small animal anesthesia device and whole-body T1-weighted MRI scans were performed (3D GRE EXT multi-FOV; TR/TE 15/2 ms; phase: 100; FOV 60 mm; NEX 2) using the preclinical nanoScan PET/MRI system with 1 Tesla magnetic field (Mediso Ltd., Hungary). After MRI imaging, 20 min static whole-body PET scans were acquired (90 min and 4 h after radiotracer injection).
Quantitative radiotracer uptake was expressed in terms of standardized uptake value (SUV), SUV = [VOI activity (Bq/mL)]/[injected activity (Bq)/animal weight (g)], assuming a density of 1 g/mL. Volumes of interest (VOI) were manually drawn around the edge of the organ or tumor activity using the InterView™ FUSION (Mediso Ltd., Hungary) image analysis software. Tumor-to-muscle (T/M) ratios were computed as the ratio between the activity in the tumor VOI and in the background (muscle) VOI. Skeletal muscles of the right shoulder area were used as background.

[6] = Octanol/water partition coefficient (logP) of labeled complexes; type: physicochemical; details: 1-octanol/water, triplicates
Experimental: as §1
A 10 µL volume of [^68Ga]Ga(DO3AM-NI) and [^44Sc]Sc(DO3AM-NI) solution (~5 MBq) was mixed with 500 µL of 1-octanol and 490 µL of water in an Eppendorf vial, respectively. The mixture was shaken with a vortex shaker (600 rpm) for 10 min and centrifuged (6000 rpm) for 5 min. Then, 100 µL from the octanol phase and 1 μL from the aqueous phase were pipetted into vials, and the aqueous aliquot was diluted to 100 µL with water in order to minimize the effects of sample geometry and the high difference of activity concentrations in the two solvents. The radioactivity of the fractions was determined with a gamma counter. The measurements were performed in triplicates for both labeled compounds.

In the case of `O=C([O-])CN1CCN(CC(=O)[O-])CCN(CC(=O)NCCn2ccnc2[N+](=O)[O-])CCN(CC(=O)[O-])CC1.[68Ga+3]` [[^68Ga]Ga(DO3AM-NI)], the “uptake (SUV) in liver, spleen, kidney, intestines, lung, heart and brain compared with [^44Sc]Sc(DO3AM-NI)” value [1] is reported as “significantly (p ≤ 0.01) higher”, the “RCP after 240 min” value ([2]; Na2H2EDTA (0.01 M)) is reported as “above 93%” and the “RCP after 240 min” value ([2]; mouse plasma) is reported as “above 93%”. The “RCP after 240 min” value ([2]; oxalic acid (0.01 M)) was “above 93%”, the “T/M (tumor-to-muscle ratio)” value ([3]; 90 min after injection) was 6.28 ± 1.11 and the KB tumor uptake ([3]; 90 min after injection) was 0.62 ± 0.10 %ID/g. For the same compound, the “T/M (tumor-to-muscle ratio)” value ([3]; 240 min after injection) was 7.51 ± 1.13, the KB tumor uptake ([3]; 240 min after injection) was 0.46 ± 0.07 %ID/g and the Blood uptake ([4]; 90 min after i.v. injection) was 0.81 ± 0.22 %ID/g. It also gave a Fat uptake ([4]; 90 min after i.v. injection) of 0.13 ± 0.10 %ID/g, a Heart uptake ([4]; 90 min after i.v. injection) of 0.26 ± 0.06 %ID/g and a Kidney uptake ([4]; 90 min after i.v. injection) of 1.32 ± 0.47 %ID/g. For the same compound, the Large intestine uptake ([4]; 90 min after i.v. injection) was 0.20 ± 0.13 %ID/g, the Liver uptake ([4]; 90 min after i.v. injection) was 0.43 ± 0.11 %ID/g and the Lung uptake ([4]; 90 min after i.v. injection) was 0.49 ± 0.08 %ID/g. The Muscle uptake ([4]; 90 min after i.v. injection) was 0.10 ± 0.03 %ID/g, the Small intestine uptake ([4]; 90 min after i.v. injection) was 0.25 ± 0.10 %ID/g and the Spleen uptake ([4]; 90 min after i.v. injection) was 0.29 ± 0.14 %ID/g. It also gave a Stomach uptake ([4]; 90 min after i.v. injection) of 0.21 ± 0.04 %ID/g, a Urine uptake ([4]; 90 min after i.v. injection) of 65.94 ± 5.21 %ID/g and a Blood uptake ([4]; 240 min after i.v. injection) of 0.65 ± 0.11 %ID/g. For the same compound, the Fat uptake ([4]; 240 min after i.v. injection) was 0.12 ± 0.08 %ID/g, the Heart uptake ([4]; 240 min after i.v. injection) was 0.22 ± 0.04 %ID/g and the Kidney uptake ([4]; 240 min after i.v. injection) was 1.21 ± 0.17 %ID/g. The Large intestine uptake ([4]; 240 min after i.v. injection) was 0.15 ± 0.06 %ID/g, the Liver uptake ([4]; 240 min after i.v. injection) was 0.37 ± 0.10 %ID/g and the Lung uptake ([4]; 240 min after i.v. injection) was 0.46 ± 0.09 %ID/g. For the same compound, the Muscle uptake ([4]; 240 min after i.v. injection) was 0.06 ± 0.03 %ID/g, the Small intestine uptake ([4]; 240 min after i.v. injection) was 0.14 ± 0.04 %ID/g and the Spleen uptake ([4]; 240 min after i.v. injection) was 0.32 ± 0.18 %ID/g. For the same compound, the Stomach uptake ([4]; 240 min after i.v. injection) was 0.22 ± 0.06 %ID/g, the Urine uptake ([4]; 240 min after i.v. injection) was 17.08 ± 7.97 %ID/g and the “tumor-to-muscle ratio T/M SUVmax” value [5] was 41.72 ± 13.61. The “tumor-to-muscle ratio T/M SUVmean” value [5] was 85.66 ± 6.06 and the “octanol/water partition coefficient (logP)” value [6] was −3.89.
